Values belong to the compound of their own block, whether it stands above or below them.
Assays:
[1] = Multicomponent pharmacokinetics in rat plasma after i.v. safflower injection (SI); details: for concentration at 15 min / AUC(0-inf) / AUC(0-t) / Cmax / MRT inf / MRT last / Vd / clearance / half-life: male, Sprague-Dawley, rat, plasma; for concentration at 15 min: intravenous; for AUC(0-inf) / AUC(0-t) / Cmax / MRT inf / MRT last / Vd / clearance / half-life: iv
Procedure: The animal experiments were approved by the Animal Care and Use Committee of the College of Animal Science (College of Bee Science), Fujian Agriculture and Forestry University (Approval Number: PZCASFAFU21012). 250 ± 20 g of male Sprague-Dawley (SD) rats were provided by Lab Animal Center in Fujian Medical University (Fuzhou, China).
Ten rats were divided into three groups (Low dose group, n = 4; medium and high groups, n = 3, respectively). […] For each rat, 2 ml of physiological saline was supplemented after 30 min sampling via intraperitoneal injection. The plasma samples were obtained by centrifugation at 3,000 rpm for 10 min and stored at −20°C until analysis.
Clear supernatant (5 μl) was injected into HPLC-MS for bioanalysis.
The sample was separated on a RD-C18 column (4.6 mm × 50 mm, 3.5 μm, Zhongpu Develop, China). The mobile phase incudes water with 0.1% acetic acid (A) and acetonitrile (B). […] The column temperature, flow rate and injection volume were set at 30°C, 0.5 ml/min and 5 μl, respectively.
Non-compartmental model was used to calculate the PK parameters by DAS 3.0 software (Chinese Pharmacologic Society, Beijing, China). A single-tailed t-test was carried out in the study.

[2] = tested on: H9c2 cardiomyocytes injured by H2O2; test: Protection of cardiomyocytes injured by H2O2 (MTT); type: cell-based
Procedure: H9c2 cardiomyocytes obtained from Cell Bank of the Chinese Academy of Sciences (Shanghai, China) were cultured in DMEM (high glucose) supplemented with 1% P/S and 15% FBS in 5% CO2 at 37°C. The cells were collected with 0.25% trypsin, followed by re-seeding in 96-well multiplates with a density of 5×10^3 cells per well. The cell experiments were grouped as follows: normal group, model group (H2O2), administration groups and positive control groups (N-Acetyl-L-cysteine, NAC). […] After that, cells were incubated with 0.5 mg/ml of MTT for 4 h under standard condition, followed by addition of 150 µl DMSO into every well. The cell supernatants were finally removed and the optical density (OD) was recorded at 570 nm using a microplate reader (Thermo Fisher Scientific, United States). The protection rate of the compounds on H9c2 cardiomyocytes was calculated as (OD valueadministration group (or NAC group)-OD valuemodel group)/(OD valuenormal group-OD valuemodel group) ×100%.

[3] = Stability of 6 compounds of SI in rat plasma; details: for 10h in auto-sampler vials RE: extracted rat plasma; for 6h at room temperature RE / Freeze-thaw stability (three cycles) RE / Long-term stability (-80℃,15 days) RE: rat plasma
Description: The LC-MS method was validated by linearity, limits of detection (LOD), limits of quantification (LOQ), precision, accuracy, extraction recovery, matrix effect and stability of the 6 ingredients in rat plasma. Calibration curves were plotted using weighted linear regression of the peak area ratio of analyte to the IS against the corresponding nominal concentration of the analyte. LOD and LOQ were defined as the detectable concentration at which the ratio of signal to noise was more than 3 and 10, respectively. Intra- and inter-day accuracy and precision were assessed by detecting quality control (QC) samples using five replicates of rat samples at three concentration levels on one or three validation days, respectively. Accuracy and precision were expressed by relative error (RE) and relative standard deviation (RSD), respectively. The extraction recovery and matrix effect of the 6 components at above-mentioned three concentration levels were determined. Stability was assessed under the condition of placing un-treated plasma samples at room temperature for 6 h, and extracted plasma samples in auto-sampler for 10 h, as well as placing plasma samples within freeze-thaw three cycles and at −80 °C for 15 days.

[4] = Stability in diluted SI at room temperature; details: analyzed at 0, 2, 4, 8, 12, 24, and 48 h
[5] = tested on: H9c2 cardiomyocytes injured by H2O2; test: TMT quantitative proteomics of H2O2-injured cardiomyocytes; type: cell-based; details: 195 μM
Procedure: The procedures for cell culture, group and administration are similar to those in “2.7. […] Briefly, the difference is that H9c2 cells were seeded and cultured in a culture flask with a bottom area of 25 cm^2 with a density 1×10^5 cells/ml. After treatment, about 3×10^7 cells per group were collected for the next quantitative proteomics investigation, which was done by Jingjie PTM Biolabs (Hangzhou, China). All the procedures for quantitative proteomics can be found in the section of “5. Quantitative proteomics” of the Supplementary Material.
The quantitative proteomics study was carried out according to our previous report ([Li et al., 2022]). Relative quantitative values of proteins in two samples were compared via t-test. […] The identified difference proteins between groups were subjected further to principal component analysis (PCA). […] The subcellular structure location was analyzed using these proteins as objectives.

10h in auto-sampler vials RE ([3]; spiked 150 ng/mL): -6.50% | 10h in auto-sampler vials RE ([3]; spiked 400 ng/mL): 0.06% | 10h in auto-sampler vials RE ([3]; spiked 10000 ng/mL): -4.10% | 6h at room temperature RE ([3]; spiked 150 ng/mL): -2.67% | Freeze-thaw stability (three cycles) RE ([3]; spiked 150 ng/mL): 0.13% | Long-term stability (-80℃,15 days) RE ([3]; spiked 150 ng/mL): -0.13% | 6h at room temperature RE ([3]; spiked 400 ng/mL): -2.50% | Freeze-thaw stability (three cycles) RE ([3]; spiked 400 ng/mL): 3.70% | Long-term stability (-80℃,15 days) RE ([3]; spiked 400 ng/mL): 1.40% | 6h at room temperature RE ([3]; spiked 10000 ng/mL): -2.72% | Freeze-thaw stability (three cycles) RE ([3]; spiked 10000 ng/mL): -1.55% | Long-term stability (-80℃,15 days) RE ([3]; spiked 10000 ng/mL): 6.82% | detection in rat plasma ([1]; 1 h after administration (2 ml/kg of SI), preliminary test): can be detected | AUC(0-inf) ([1]; 1 ml/kg): 67.7 ± 57.2 ng·h/mL | AUC(0-t) ([1]; 1 ml/kg): 62.5 ± 50 ng·h/mL | Cmax ([1]; 1 ml/kg): 305 ± 147 ng/mL | MRT inf ([1]; 1 ml/kg): 7.2 ± 4.2 min | MRT last ([1]; 1 ml/kg): 6 ± 3 min | Vd ([1]; 1 ml/kg): 0.11 ± 0.03 L/kg | clearance ([1]; 1 ml/kg): 20.2 mL/min/kg | half-life ([1]; 1 ml/kg): 4.8 ± 3 min | AUC(0-inf) ([1]; 2 ml/kg): 277 ± 84 ng·h/mL | AUC(0-t) ([1]; 2 ml/kg): 265 ± 89.7 ng·h/mL | Cmax ([1]; 2 ml/kg): 715 ± 85.8 ng/mL | MRT inf ([1]; 2 ml/kg): 19.8 ± 0.6 min | MRT last ([1]; 2 ml/kg): 16.2 ± 1.8 min | Vd ([1]; 2 ml/kg): 0.13 ± 0.07 L/kg | clearance ([1]; 2 ml/kg): 6.67 mL/min/kg | half-life ([1]; 2 ml/kg): 13.2 ± 3.6 min | AUC(0-inf) ([1]; 4 ml/kg): 469 ± 38.1 ng·h/mL | AUC(0-t) ([1]; 4 ml/kg): 433 ± 44.5 ng·h/mL | Cmax ([1]; 4 ml/kg): 1260 ng/mL | MRT inf ([1]; 4 ml/kg): 19.2 ± 2.4 min | MRT last ([1]; 4 ml/kg): 15 ± 2.4 min | Vd ([1]; 4 ml/kg): 0.14 ± 0.03 L/kg | clearance ([1]; 4 ml/kg): 7.5 mL/min/kg | half-life ([1]; 4 ml/kg): 12.6 ± 3 min | Stability RSD [4]: 3.29%
Compound: O=C(O)/C=C/c1ccc(O)cc1 [p-CA, p-coumaric acid]
protection ([2]; 8.5 μM, preliminary test at maximum detected plasma concentration): absence of protection

concentration at 15 min ([1]; 2 ml/kg): < 0.5 ng/mL | Stability RSD [4]: 2.51%
Compound: O=c1c(O)c(-c2ccc(O)c(O)c2)oc2cc(O)cc(O)c12 [quercetin]

concentration at 15 min ([1]; 2 ml/kg): < 0.5 ng/mL | Stability RSD [4]: 2.81%
Compound: O=c1ccn([C@@H]2O[C@H](CO)[C@@H](O)[C@H]2O)c(=O)[nH]1 [uridine]

Continued, compound first:

Compound: O=c1c(O)c(-c2ccc(O)cc2)oc2cc(O)cc(O)c12 [kaempferol]
concentration at 15 min ([1]; 2 ml/kg): < 0.5 ng/mL

Compound: O=C(O)/C=C/c1ccccc1 [trans-cinnamic acid]
Stability RSD [4]: 1.86%

Compound: hydroxysafflor yellow A [HSYA]
cell viability vs. model group ([2]; 10 μM, pretreated 24 h, 250 μM H2O2 2 h): higher cell viability than the model group | anti-H2O2 injury effect (protection rate) ([2]; 1, 5 and 10 μM): concentration-dependent | protection rate ([2]; […] μM, preliminary test at maximum detected plasma concentration): about 26% | proteins significantly downregulated vs. M group ([5]; fold change ≤1/1.5, p <0.05): 205 proteins | proteins significantly upregulated vs. M group ([5]; fold change ≥1.5, p <0.05): 148 proteins | KEGG pathway regulation ([5]; vs. M group): downregulated the ribosome pathway and upregulated the lysosome pathway | changed protein expression located at the cytoplasm ([5]; vs. M group): 41.64% | changed protein expression located at the nucleus ([5]; vs. M group): 27.48%
